{
  "source": "patent US11351142B2",
  "about": "“Composition and method for treating neuronal ceroid lipofuscinosis” (Rush University Medical Center, priority 2012, dated 2022)",
  "key": {"[1]": {"test_system": "TPP1", "experiment": "Immunofluorescence for TPP1 in human primary astrocytes", "assay_type": "cell-based", "settings": "25 μM gemfibrozil and 10 μM fenofibrate, 24 hrs", "description": "Following four 15 minute washes with filtered PBS, cells were incubated for 4-5 min with 4′, 6-diamidino-2-phenylindole (DAPI, 1:10,000; Sigma)."}, "[2]": {"test_system": "primary human neurons", "experiment": "LysoTracker labeling of lysosomes in primary human neurons", "assay_type": "cell-based", "settings": "25 μM gemfibrozil and 10 μM fenofibrate, 24 hours", "description": "DAPI was used to visualize nuclei. Results represent 3 independent experiments."}, "[3]": {"test_system": "Cln2 mRNA", "experiment": "Cln2 mRNA expression by semi-quantitative RT-PCR and real-time PCR in mouse primary astrocytes", "assay_type": "cell-based", "description": "Astroglia were isolated from mixed glial cultures as described (17,18) according to the procedure of Giulian and Baker (19). Briefly, on day 9, the mixed glial cultures were washed three times with Dulbecco's modified Eagle's medium/F-12 and subjected to shaking at 240 rpm for 2 h at 37° C. on a rotary shaker to remove microglia. After 2 days, the shaking was repeated for 24 h for the removal of oligodendroglia and to ensure the complete removal of all nonastroglial cells. The attached cells were seeded onto new plates for further studies. Total RNA was isolated from mouse primary astrocytes and human primary astrocytes using RNA-Easy Qiagen (Valencia, Calif.) kit following manufactures protocol. Semi-quantitative RT-PCR was carried out as described earlier (24) using oligo (dT) 12-18 as primer and moloney murine leukemia virus reverse transcriptase (MMLV-RT, Invitrogen) in a 20 μl reaction mixture. The resulting cDNA was appropriately amplified using Promega Master Mix (Madison, Wis.) and the following primers (Invitrogen) for murine genes: The mRNA quantification was performed using the ABI-Prism7700 sequence detection system (Applied Biosystems, Foster City, Calif.) using iTaq™ Fast Supermix With ROX (Bio-Rad, Hercules, Calif.) and the following 6-FAM/ZEN/IBFQ-labeled primers for murine genes: Cln2 and Gapdh (Integrated DNA Technologies Coralville, Iowa). The mRNA expression of the targeted genes was normalized to the level of Gapdh mRNA and data was processed by the ABI Sequence Detection System 1.6 software."}, "[4]": {"test_system": "TPP1", "experiment": "Immunofluorescence for TPP1 in SH-SY5Y cells", "assay_type": "cell-based, human", "settings": "25 μM gemfibrozil and 10 μM fenofibrate, 24 hrs", "description": "Immunocytochemistry was performed as described earlier (25). Briefly, 8 well chamber slides containing mouse primary astrocytes, mouse neurons, human primary astrocytes or SH-SY5Y cells were cultured to 70-80% confluence were fixed with chilled Methanol (Fisher Scientific, Waltham, Mass.) overnight, followed by two brief rinses with filtered PBS. Samples were blocked with 2% BSA (Fisher Scientific) in PBS containing Tween 20 (Sigma) and Triton X-100 (Sigma) for 30 min and incubated at room temperature under shaking conditions for 2 hr in PBS containing the following anti-mouse primary antibodies: […] Santa Cruz Biotech, Santa Cruz, Calif.), GFAP, (1:100; Santa Cruz), and 3-tubulin (1:5000; Millipore). After four 15 min washes in filtered PBS, the slides were further incubated with Cy2 or Cy5-labeled secondary antibodies (all 1:200; Jackson ImmunoResearch, West Grove, Pa.) for 1 hr under similar shaking conditions. Following four 15 minute washes with filtered PBS, cells were incubated for 4-5 min with 4′, 6-diamidino-2-phenylindole (DAPI, 1:10,000; Sigma). The samples were run in an EtOH and Xylene (Fisher) gradient, mounted and observed under Olympus BX41 fluorescence microscope."}},
  "data": [
    {"compound": "Cc1ccc(C)c(OCCCC(C)(C)C(=O)O)c1", "note": "[gemfibrozil]", "values": [
      {"measurement": "level of TPP1 protein (immunofluorescence)", "setting": "[1]", "result": "considerable increase"},
      {"measurement": "lysosomal proliferation (LysoTracker)", "setting": "[2]", "result": "upregulation"},
      {"measurement": "Cln2 mRNA expression", "setting": "[3]; PPARα−/− astrocytes, different concentrations, 24 hrs", "result": "little or no effect"},
      {"measurement": "Cln2 mRNA expression in presence of PPARγ antagonist", "setting": "[3]; WT astrocytes pre-treated with GW9662 for 30 min", "result": "increased expression"},
      {"measurement": "Cln2 level (quantitative real time PCR)", "setting": "[3]; astrocytes with RXRα knockdown (RXRα siRNA), gemfibrozil (10 μM), RA (0.5 μM) alone and in combination", "result": "almost unresponsive"},
      {"measurement": "increase in Cln2 mRNA levels (quantitative real time PCR)", "setting": "[3]; mouse primary astrocytes, 24 hrs, RA 0.5 μM, gemfibrozil 10 μM, combination 10 μM gemfibrozil and 0.5 μM RA", "result": "~4", "unit": "fold"},
      {"measurement": "Cln2 mRNA levels (RT-PCR and qPCR)", "setting": "[3]; mouse primary astrocytes, serum free media, different doses and time points, maximum increase at 24 hrs of 25 μM gemfibrozil", "result": "upregulated"},
      {"measurement": "level of TPP1 protein (immunofluorescence)", "setting": "[4]", "result": "considerable increase"}
    ]}
  ]
}
